According to publication PMC9058255 (RSC Advances, 2020):
Like-named read-outs stand apart in the source and are kept apart here.

Columns and labels:
MERS-S pseudovirus = experiment: organism not typed; type: cell-based, MERS-CoV; conditions: for IC50: read-out: IC50: 50% inhibitory concentration
in vitro = conditions: human

Compound | IC50 (MERS-S pseudovirus; Huh-7, 48 h) [µM] | CC50 (in vitro) [µM] | other results
C(=N\c1ccc(-c2nc3ccccc3s2)cc1)/c1cccs1 [Compound 1q, (E)-N-(4-(Benzo[d]thiazol-2-yl)phenyl)-1-(thiophen-2-yl)methanimine] | 6.52 ± 1.14 | > 100 | inhibitory activity against MERS-S pseudovirus (in words) (MERS-S pseudovirus): modest inhibitory capacity
C(=N\c1ccc(-c2nc3ncccc3s2)cc1)/c1ccsc1 [Compound 4a, (E)-N-(4-(Thiazolo[4,5-b]pyridin-2-yl)phenyl)-1-(thiophen-3-yl)methanimine] | > 10 |  | 
COc1cccc(/C=N/c2ccc(-c3nc4ccccc4[nH]3)cc2)c1O [Compound 1c, (E)-2-(((4-(1H-Benzo[d]imidazol-2-yl)phenyl)imino)methyl)-6-methoxyphenol] | > 10 |  | inhibitory activity against MERS-S pseudovirus (in words) (MERS-S pseudovirus): lost inhibitory activity
C(=N\c1ccc(-c2nc3ccccc3s2)cc1)/c1cc[nH]c1 [Compound 1p, (E)-N-(4-(Benzo[d]thiazol-2-yl)phenyl)-1-(1H-pyrrol-3-yl)methanimine] | > 10 | > 100 | 
C(=N\c1ccc(-c2nc3ccccc3s2)cc1)/c1ccsc1 [Compound 1o, (E)-N-(4-(Benzo[d]thiazol-2-yl)phenyl)-1-(thiophen-3-yl)methanimine] | 0.14 ± 0.06 | > 100 | 
COc1cccc(/C=N/c2ccc(-c3nc4ccccc4s3)nc2)c1O [Compound 1d, (E)-2-(((6-(Benzo[d]thiazol-2-yl)pyridin-3-yl)imino)methyl)-6-methoxyphenol] | 2.7 ± 0.19 |  | inhibitory activity against MERS-S pseudovirus (in words) (MERS-S pseudovirus): Modest inhibitory activity
(E)-N-(4-(Benzo[d]thiazol-2-yl)phenyl)-1-(3-methoxyphenyl)methanimine [Compound 1j] |  |  | IC50 (MERS-S pseudovirus): 0.2 ± 0.05 µM; CC50 (Huh-7 cells): > 100 µM
Cc1ccc2nc(-c3ccc(/N=C/c4ccsc4)cc3)sc2c1 [Compound 4j, (E)-N-(4-(6-Methylbenzo[d]thiazol-2-yl)phenyl)-1-(thiophen-3-yl)methanimine] | > 10 |  | 
C(=N\c1ccc(-c2nc3ccccc3s2)cc1)/c1ccccc1 [Compound 1h, (E)-N-(4-(Benzo[d]thiazol-2-yl)phenyl)-1-phenylmethanimine] | 0.57 ± 0.11 | > 100 | 
Fc1ccc2nc(-c3ccc(/N=C/c4ccsc4)cc3)sc2c1 [Compound 4f, (E)-N-(4-(6-Fluorobenzo[d]thiazol-2-yl)phenyl)-1-(thiophen-3-yl)methanimine] | 0.09 ± 0.01 |  | 
C(=N\c1ccc(-c2nc3ccccc3s2)cc1)/c1cccnc1 [Compound 1m, (E)-N-(4-(Benzo[d]thiazol-2-yl)phenyl)-1-(pyridin-3-yl)methanimine] | 0.34 ± 0.24 | > 100 | 
CCOc1ccc2nc(-c3ccc(/N=C/c4ccsc4)cc3)sc2c1 [Compound 4i, (E)-N-(4-(6-Ethoxybenzo[d]thiazol-2-yl)phenyl)-1-(thiophen-3-yl)methanimine] | > 10 |  | 
C(=N\c1ccc(-c2nc3ccccc3s2)cc1)/c1cscn1 [Compound 1s, (E)-N-(4-(Benzo[d]thiazol-2-yl)phenyl)-1-(thiazol-4-yl)methanimine] | > 10 | > 100 | 
COc1cccc(/C=N/c2ccc(-c3nc4ccccc4o3)cc2)c1O [Compound 1b, (E)-2-(((4-(Benzo[d]oxazol-2-yl)phenyl)imino)methyl)-6-methoxyphenol] | > 10 |  | inhibitory activity against MERS-S pseudovirus (in words) (MERS-S pseudovirus): lost inhibitory activity
CN(C)c1ccc2nc(-c3ccc(/N=C/c4ccsc4)cc3)sc2c1 [Compound 4l, (E)-N,N-Dimethyl-2-(4-((thiophen-3-ylmethylene)amino)phenyl)benzo[d]thiazol-6-amine] | > 10 |  | 
Oc1ccccc1/C=N/c1ccc(-c2nc3ccccc3s2)cc1 [Compound 1i, (E)-2-(((4-(Benzo[d]thiazol-2-yl)phenyl)imino)methyl)phenol] | 0.52 ± 0.03 | > 100 | 
C(=N\c1ccc(Sc2nc3ccccc3s2)cc1)/c1ccsc1 [Compound 4p, (E)-N-(4-(Benzo[d]thiazol-2-ylthio)phenyl)-1-(thiophen-3-yl)methanimine] | > 10 |  | inhibitory activity against MERS-S pseudovirus (in words) (MERS-S pseudovirus): inhibitory activity was abolished
CNc1ccc2nc(-c3ccc(/N=C/c4ccsc4)cc3)sc2c1 [Compound 4k, (E)-N-Methyl-2-(4-((thiophen-3-ylmethylene)amino)phenyl)benzo[d]thiazol-6-amine] | > 10 |  | 
C(=N\c1ccc(-c2nc3ccccc3s2)cc1)/c1ccoc1 [Compound 1n, (E)-N-(4-(Benzo[d]thiazol-2-yl)phenyl)-1-(furan-3-yl)methanimine] | > 10 | > 100 | 

Compound | IC50 (MERS-S pseudovirus; Huh-7, 48 h) [µM] | CC50 (in vitro) [µM] | other results
COc1cccc(CNc2ccc(-c3nc4ccccc4s3)cc2)c1O [Compound 1f, 2-(((4-(benzo[d]thiazol-2-yl)phenyl)amino)methyl)-6-methoxy-phenol] | > 10 |  | inhibitory activity against MERS-S pseudovirus (in words) (MERS-S pseudovirus): inhibitory activity was markedly reduced
C(=N\c1ccc(Oc2nc3ccccc3s2)cc1)/c1ccsc1 [Compound 4o, (E)-N-(4-(Benzo[d]thiazol-2-yloxy)phenyl)-1-(thiophen-3-yl)methanimine] | > 10 |  | inhibitory activity against MERS-S pseudovirus (in words) (MERS-S pseudovirus): inhibitory activity was abolished
C(=N\c1ccc(-c2cn3ccccc3n2)cc1)/c1ccsc1 [Compound 4d, (E)-N-(4-(Imidazo[1,2-a]pyridin-2-yl)phenyl)-1-(thiophen-3-yl)methanimine] | > 10 |  | 
C(=N\c1ccc(-c2nc3ccccc3s2)cc1)/c1cncs1 [Compound 1t, (E)-N-(4-(Benzo[d]thiazol-2-yl)phenyl)-1-(thiazol-5-yl)methanimine] | 8.8 ± 0.01 | > 100 | 
CNC(=O)c1ccc2nc(-c3ccc(/N=C/c4ccsc4)cc3)sc2c1 [Compound 4n, (E)-N-Methyl-2-(4-((thiophen-3-ylmethylene)amino)phenyl)benzo[d]thiazole-6-carboxamide] | > 10 |  | 
C(=N\c1ccc(-c2cn3c(n2)sc2ccccc23)cc1)/c1ccsc1 [Compound 4c, (E)-N-(4-(Benzo[d]imidazo[2,1-b]thiazol-2-yl)phenyl)-1-(thiophen-3-yl) methanimine] | > 10 |  | 
C(=N\c1ccc(-c2nc3ccccc3s2)cc1)/c1nccs1 [Compound 1u, (E)-N-(4-(Benzo[d]thiazol-2-yl)phenyl)-1-(thiazol-2-yl)methanimine] | > 10 | > 100 | 
Fc1cccc2sc(-c3ccc(/N=C/c4ccsc4)cc3)nc12 [Compound 4h, (E)-N-(4-(4-Fluorobenzo[d]thiazol-2-yl)phenyl)-1-(thiophen-3-yl)methanimine] | 0.53 ± 0.02 |  | 
O=[N+]([O-])c1cc(/C=N/c2ccc(-c3nc4ccccc4s3)cc2)cs1 [Compound 1r, (E)-N-(4-(Benzo[d]thiazol-2-yl)phenyl)-1-(5-nitrothiophen-3-yl)methanimine] | 0.62 ± 0.31 | > 100 | 
C(=N\c1ccc(-c2nc3c(s2)CCCC3)cc1)/c1ccsc1 [Compound 4b, (E)-N-(4-(4,5,6,7-Tetrahydrobenzo[d]thiazol-2-yl)phenyl)-1-(thiophen-3-yl) methanimine] | > 10 |  | 
Fc1ccc2sc(-c3ccc(/N=C/c4ccsc4)cc3)nc2c1 [Compound 4g, (E)-N-(4-(5-Fluorobenzo[d]thiazol-2-yl)phenyl)-1-(thiophen-3-yl)methanimine] | 1 ± 0.07 |  | 
COc1cccc(/C=N/c2nc3ccccc3s2)c1O [Compound 1e, (E)-2-((benzo[d]thiazol-2-ylimino)methyl)-6-methoxyphenol] | > 10 |  | inhibitory activity against MERS-S pseudovirus (in words) (MERS-S pseudovirus): lost inhibitory activity
Fc1cccc2nc(-c3ccc(/N=C/c4ccsc4)cc3)sc12 [Compound 4e, (E)-N-(4-(7-Fluorobenzo[d]thiazol-2-yl)phenyl)-1-(thiophen-3-yl)methanimine] | 1.67 ± 0.3 |  | 
COc1ccc(/C=N/c2ccc(-c3nc4ccccc4s3)cc2)cc1O [Compound 1l, (E)-5-(((4-(Benzo[d]thiazol-2-yl)phenyl)imino)methyl)-2-methoxyphenol] | 0.22 ± 0.03 | > 100 | 
COc1cccc(/C=N/c2ccc(-c3nc4ccccc4s3)cc2)c1O [Compound 1a, (E)-2-(((4-(Benzo[d]thiazol-2-yl)phenyl)imino)methyl)-6-methoxyphenol] |  |  | inhibitory activity against MERS-S pseudovirus (in words) (MERS-S pseudovirus): modest entry inhibitor; IC50 (MERS-S pseudovirus): 0.73 ± 0.66 µM
COc1cccc(C(=O)Nc2ccc(-c3nc4ccccc4s3)cc2)c1O [Compound 1g, N-(4-(benzo[d]thiazol-2-yl)phenyl)-2-hydroxy-3-methoxybenzamide] | > 10 |  | inhibitory activity against MERS-S pseudovirus (in words) (MERS-S pseudovirus): inhibitory activity was markedly reduced
Oc1cccc(/C=N/c2ccc(-c3nc4ccccc4s3)cc2)c1O [Compound 1k, (E)-3-(((4-(Benzo[d]thiazol-2-yl)phenyl)imino)methyl)benzene-1,2-diol] | 0.4 ± 0.01 | > 100 | 
O=C(O)c1ccc2nc(-c3ccc(/N=C/c4ccsc4)cc3)sc2c1 [Compound 4m, (E)-2-(4-((Thiophen-3-ylmethylene)amino)phenyl)benzo[d]thiazole-6-carboxylic acid] | > 10 |  | 
